Results: US11976075B2, “Inhibitors of the MYST family of lysine acetyl transferases” (Isosterix, Inc., priority 2022, dated 2024)
Like-named read-outs stand apart in the source and are kept apart here.

Legend:
[1] = target: T1, Recombinant KAT6A/MOZ (488-778) protein (Homo sapiens, UniProt Q92794); test: Kat6a AlphaLISA Inhibition Screening Assay; assay type: biochemical; conditions: 60′ pre-incubation
T1 construct: Recombinant KAT6A/MOZ (488-778) protein (Active motif, Catalog #81223); purchased Active Motif 81223
Summary of the method: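 Recombinant KAT6A (488-778), 25 nM, was preincubated with compound (10-point dose response) for 60 or 10 min. It then reacted 120 min at room temperature with 200 nM biotin-H3(1-21) peptide and 400 nM acetyl-CoA, pH 8.0, with 330 nM TSA present. Acetylation was detected by AlphaLISA (anti-acetyl-lysine acceptor, streptavidin donor beads).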

[2] = test system: ZR-75-1; test: In Vitro Cancer Cell Assay (cell viability, Cell Titer Glow, 10 days); assay type: cell-based; conditions: Homo sapiens; ZR-75-1 cells; Table 2
Protocol: ZR-75-1 and T47D are breast cancer cell lines containing high KAT6A protein expression. Proliferation of these cell lines are inhibited upon treatment with a KAT6A inhibitor. Cell line MCF7 is used as a negative control. MCF7 cells have a low KAT6A protein expression and are not growth inhibited upon treatment with KAT6A inhibitors. WM-1119 is used as a positive control.
1500 cells are seeded per well and incubated overnight at 37° C. and 5% CO2. Cells are treated after 24 hours with a compound (stock solution, 10 mM in DMSO) with 9-10 dilutions and a final DMSO concentration of 0.5%. […] Test compounds are tested like WM-1119. Plates are incubated at 37° C. and 5% CO2 for 10 days. Media is replenished after every alternate day. At day 10, Cell Titer Glow is added to the wells and luminescence is recorded after 10 min incubation. Data are normalized to 100% with DMSO control and subtracting media blank. Cell viability is of the test compounds is measured.
The above procedure can be followed for determining activity in additional cell lines, for example, ZR-75-1, T47D, CHAGOK1 and other cell lines that have high expression of KAT6A. The number of cells used will be optimized based on growth rate of the individual cell lines.

[3] = Table 2, read-out: Kat6A biochemical assay: IC50

T1 sequence (Q92794 488-778): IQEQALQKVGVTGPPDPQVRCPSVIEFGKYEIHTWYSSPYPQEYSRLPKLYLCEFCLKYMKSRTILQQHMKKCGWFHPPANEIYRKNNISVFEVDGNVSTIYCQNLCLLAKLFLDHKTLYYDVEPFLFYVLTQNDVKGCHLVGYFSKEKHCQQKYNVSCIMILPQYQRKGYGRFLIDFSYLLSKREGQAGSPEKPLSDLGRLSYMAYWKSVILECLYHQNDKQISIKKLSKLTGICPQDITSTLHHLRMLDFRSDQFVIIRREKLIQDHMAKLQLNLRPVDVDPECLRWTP

C#CC(=O)NCc1cnn(Cc2cc(OC)c3c(NS(=O)(=O)c4ccccc4C(=O)OC)noc3c2)c1 [Synthetic Example 36, methyl 2-(N-(4-methoxy-6-((4-(propiolamidomethyl)-1H-pyrazol-1-yl)methyl)benzo[d]isoxazol-3-yl)sulfamoyl)benzoate]
IC50 [1, 3]: ≤ 10 µM
EC50 [2]: ≤ 10 µM

C=CC(=O)NCc1ccn(Cc2cc(OC)c3c(NS(=O)(=O)Cc4ccccc4)noc3c2)n1 [Synthetic Example 20, N-((1-((4-methoxy-3-((phenylmethyl)sulfonamido)benzo[d]isoxazol-6-yl)methyl)-1H-pyrazol-3-yl)methyl)acrylamide]
IC50 [1, 3]: ≤ 10 µM
EC50 [2]: > 10 µM

C=CS(=O)(=O)NCc1cnn(Cc2cc(OC)c3c(NS(=O)(=O)c4c(OC)cccc4OC)noc3c2)c1 [Synthetic Example 33, 2,6-dimethoxy-N-(4-methoxy-6-((4-(vinylsulfonamidomethyl)-1H-pyrazol-1-yl)methyl)benzo[d]isoxazol-3-yl)benzenesulfonamide]
IC50 [1, 3]: ≤ 10 µM
EC50 [2]: ≤ 10 µM

C#CC(=O)NCc1cnn(Cc2cc(OC)c3c(NS(=O)(=O)c4ccccc4OC)noc3c2)c1 [Synthetic Example 31, N-((1-((4-methoxy-3-((2-methoxyphenyl)sulfonamido)benzo[d]isoxazol-6-yl)methyl)-1H-pyrazol-4-yl)methyl) propiolamide]
IC50 [1, 3]: ≤ 10 µM
EC50 [2]: ≤ 10 µM

C#CC(=O)N1Cc2cnn(Cc3cc(OC)c4c(NS(=O)(=O)c5c(OC)cccc5OC)noc4c3)c2C1 [Synthetic Example 25A, 2,6-dimethoxy-N-(4-methoxy-6-((5-propioloyl-5,6-dihydropyrrolo[3,4-c]pyrazol-1(4H)-yl)methyl)benzo[d]isoxazol-3-yl)benzenesulfonamide]
IC50 [1, 3]: ≤ 10 µM
EC50 [2]: ≤ 10 µM

C=CS(=O)(=O)NCc1cnn(Cc2cc(OC)c3c(NS(=O)(=O)c4ccccc4OC)noc3c2)c1 [Synthetic Example 32, 2-methoxy-N-(4-methoxy-6-((4-(vinylsulfonamidomethyl)-1H-pyrazol-1-yl)methyl)benzo[d]isoxazol-3-yl)benzenesulfonamide]
IC50 [1, 3]: ≤ 10 µM
EC50 [2]: ≤ 10 µM

C=CS(=O)(=O)NCc1ccn(Cc2cc(OC)c3c(NS(=O)(=O)Cc4ccccc4)noc3c2)n1 [Synthetic Example 21, N-((1-((4-methoxy-3-((phenylmethyl)sulfonamido)benzo[d]isoxazol-6-yl)methyl)-1H-pyrazol-3-yl)methyl)ethenesulfonamide]
IC50 [1, 3]: ≤ 10 µM
EC50 [2]: > 10 µM

C#CC(=O)N1Cc2cnn(Cc3cc(OC)c4c(NS(=O)(=O)c5ccccc5OC)noc4c3)c2C1 [Synthetic Example 26A, 2-methoxy-N-(4-methoxy-6-((5-propioloyl-5,6-dihydropyrrolo[3,4-c]pyrazol-1(4H)-yl)methyl)benzo[d]isoxazol-3-yl)benzenesulfonamide]
IC50 [1, 3]: ≤ 10 µM
EC50 [2]: ≤ 10 µM

C#CC(=O)N1Cc2cnn(Cc3cc(OC)c4c(NS(=O)(=O)CC5CCCCC5)noc4c3)c2C1 [Synthetic Example 30A, 1-cyclohexyl-N-(4-methoxy-6-((5-propioloyl-5,6-dihydropyrrolo[3,4-c]pyrazol-1(4H)-yl)methyl)benzo[d]isoxazol-3-yl)methanesulfonamide]
IC50 [1, 3]: ≤ 10 µM
EC50 [2]: ≤ 10 µM

C#CC(=O)NCc1cnn(Cc2cc(OC3CC3)c3c(NS(=O)(=O)c4ccccc4OC)noc3c2)c1 [Synthetic Example 43, N-((1-((4-cyclopropoxy-3-((2-methoxyphenyl)sulfonamido)benzo[d]isoxazol-6-yl)methyl)-1H-pyrazol-4-yl)methyl)propiolamide]
IC50 [1, 3]: ≤ 10 µM
EC50 [2]: ≤ 10 µM

C#CC(=O)N1Cc2cn(Cc3cc(OC)c4c(NS(=O)(=O)c5c(OC)cccc5OC)noc4c3)nc2C1 [Synthetic Example 25B, 2,6-dimethoxy-N-(4-methoxy-6-((5-propioloyl-5,6-dihydropyrrolo[3,4-c]pyrazol-2(4H)-yl)methyl)benzo[d]isoxazol-3-yl)benzenesulfonamide]
IC50 [1, 3]: ≤ 10 µM
EC50 [2]: > 10 µM

C#CC(=O)NCc1cnn(Cc2cc(OC)c3c(NS(=O)(=O)c4ccccc4C(=O)O)noc3c2)c1 [Synthetic Example 37, 2-(N-(4-methoxy-6-((4-(propiolamidomethyl)-1H-pyrazol-1-yl)methyl)benzo[d]isoxazol-3-yl)sulfamoyl)benzoic acid]
IC50 [1, 3]: ≤ 10 µM
EC50 [2]: ≤ 10 µM

C=CS(=O)(=O)NCc1cnn(Cc2cc(OC)c3c(NS(=O)(=O)CC4CCCCC4)noc3c2)c1 [compound 6]
IC50 [1, 3]: ≤ 10 µM
EC50 [2]: ≤ 10 µM

CC#CC(=O)NCc1cnn(Cc2cc(OC)c3c(NS(=O)(=O)c4ccccc4OC)noc3c2)c1 [Synthetic Example 57, N-[[1-[[4-methoxy-3-[(2-methoxyphenyl)sulfonylamino]-1,2-benzoxazol-6-yl]methyl]pyrazol-4-yl]methyl] but-2-ynamide]
IC50 [1, 3]: ≤ 10 µM

C=CS(=O)(=O)NCc1cnn(Cc2cc(OC)c3c(NS(=O)(=O)c4cc(CC)ccc4OC)noc3c2)c1 [compound 81, 5-ethyl-2-methoxy-N-(4-methoxy-6-((4-(vinylsulfonamidomethyl)-1H-pyrazol-1-yl)methyl)benzo[d]isoxazol-3-yl)benzenesulfonamide]
IC50 ([1]; Table 3, read-out: Kat6A Biochemical assay: IC50): ≤ 10 µM
